Measured values as given in patent US6518401B2, “Tumor necrosis factor stimulated gene 6 (TSG-6) protein” (New York University, priority 1991, dated 2003).

Columns and labels:
TSG-1 (IL-8) mRNA = experiment: Northern blot analysis of TSG mRNA levels in FS-4 cells; type: cell-based, human; conditions: growth arrested FS-4 cells, 2 h; TNF 20 ng/ml, CHX 10 ug/ml, IFN-β 500 U/ml, IFN-γ 100 U/ml, IL-1-α 1 ng/ml, EGF 25 ng/ml, TGF-β 2 ng/ml, poly(I).poly(C) 50 ug/ml, TPA 100 ng/ml, A23187 1 uM, forskolin 10 uM, dBcAMP 100 uM, IBMX 100 uM
Protocol: (§1) The human diploid FS-4 foreskin fibroblast cell line (Vilcek, J. et al, Proc. Natl. Acad. Sci. USA 70:3909-3913 (1973)) was used at passage level 15 in all experiments. FS-4 cells were grown in Eagle minimal essential medium (E-MEM) supplemented with 6 mM HEPES, 3 mM Tricine, 50 μg/ml gentamicin, and 5% heat inactivated (56° C., 30 min) fetal bovine serum (FBS; GIBCO Laboratories, Grand Island, N.Y.). For experiments, 4×10^6 cells were seeded in 175 cm^2 Falcon flasks, incubated at 37° C., and allowed to grow to confluence over 6 days. The confluent monolayers were washed once with phosphate buffered saline and replenished with E-MEM containing […] FBS. The cultures were incubated in this medium for another 72 h at 37° C. to let the cells become quiescent and then treated with the appropriate agents, as specified herein.
(§2) Cytoplasmic RNA was fractionated on a 1% agarose gel containing formaldehyde and blotted onto Zeta-probe blotting membranes (Bio-Rad Laboratories, Richmond, Calif.). Cytoplasmic RNA was loaded at 10 μg/lane. Prehybridization and hybridization of Northern blots were performed as described (Lin, J.-X. et al, supra). Filters were probed with 32P-labeled cDNA insert from recombinant M13 clones and/or with 32P-labeled internal reference pHe7 insert. Northern blots were quantified with a laser densitometer.
(§3) The increase in mRNA levels ranged from about 3-fold (TSG-21) to over 100-fold (TSG-6 and TSG-8).
(§4) Table 3 provides a summary of a large number of experiments in which levels of mRNAs corresponding to the 8 distinct TSG cDNAs were determined in FS-4 cells exposed to various agents by Northern blot analysis. Three of the mRNAs (corresponding to TSG-8, TSG-12 and TSG-14) were inducible by the protein synthesis inhibitor, cycloheximide (CHX). […] In contrast, induction of the remaining 3 mRNAs by TNF was inhibited or reduced in the presence of CHX. Five of the mRNAs were inducible by IFN-β, but only two of these responded to […]. Simultaneous treatment with IFN-β reduced inducibility of TSG-1 (=IL-8) mRNA by TNF, but increased the inducibility of TSG-6 and TSG-37 mRNAs. All mRNAs were inducible by IL-1 and by the doublestranded RNA poly(I)-poly(C) or the phorbol ester 12-O-tetradecanoyl phorbol 13-acetate (TPA), but the efficiency of induction by these agents varied. Epidermal growth factor (EGF) was moderately efficient in increasing TSG-21 (=collagenase) and TSG-27 (=stromelysin) mRNA levels, and weakly stimulated several other mRNAs. PDGF and transforming growth factor-β (TGF-β) were only weakly effective, as were dibutyryl cyclic AMP (dBcAMP) and the phosphodiesterase inhibitor, isobutyl methyl xanthine (IBMX).

TSG-12 mRNA = experiment: as above; type: cell-based, human; conditions: growth arrested FS-4 cells, 2 h; TNF 20 ng/ml, CHX 10 ug/ml, IFN-β 500 U/ml, IFN-γ 100 U/ml, IL-1-α 1 ng/ml, EGF 25 ng/ml, TGF-β 2 ng/ml, poly(I).poly(C) 50 ug/ml, TPA 100 ng/ml, A23187 1 uM, forskolin 10 uM, dBcAMP 100 uM, IBMX 100 uM
Protocol: as §1, §2, §3, §4

TSG-14 mRNA = experiment: as above; type: cell-based, human; conditions: growth arrested FS-4 cells, 2 h; TNF 20 ng/ml, CHX 10 ug/ml, IFN-β 500 U/ml, IFN-γ 100 U/ml, IL-1-α 1 ng/ml, EGF 25 ng/ml, TGF-β 2 ng/ml, poly(I).poly(C) 50 ug/ml, TPA 100 ng/ml, A23187 1 uM, forskolin 10 uM, dBcAMP 100 uM, IBMX 100 uM
Protocol: as §1, §2, §3, §4

TSG-37 (MT-II) mRNA = experiment: as above; type: cell-based, human; conditions: growth arrested FS-4 cells, 2 h; TNF 20 ng/ml, CHX 10 ug/ml, IFN-β 500 U/ml, IFN-γ 100 U/ml, IL-1-α 1 ng/ml, EGF 25 ng/ml, TGF-β 2 ng/ml, poly(I).poly(C) 50 ug/ml, TPA 100 ng/ml, A23187 1 uM, forskolin 10 uM, dBcAMP 100 uM, IBMX 100 uM
Protocol: as §1, §2, §3, §4

TSG-6 mRNA = experiment: as above; type: cell-based, human; conditions: growth arrested FS-4 cells, 2 h; TNF 20 ng/ml, CHX 10 ug/ml, IFN-β 500 U/ml, IFN-γ 100 U/ml, IL-1-α 1 ng/ml, EGF 25 ng/ml, TGF-β 2 ng/ml, poly(I).poly(C) 50 ug/ml, TPA 100 ng/ml, A23187 1 uM, forskolin 10 uM, dBcAMP 100 uM, IBMX 100 uM
Protocol: as §1, §2, §3, §4

TSG-8 (MCAF) mRNA = experiment: as above; type: cell-based, human; conditions: growth arrested FS-4 cells, 2 h; TNF 20 ng/ml, CHX 10 ug/ml, IFN-β 500 U/ml, IFN-γ 100 U/ml, IL-1-α 1 ng/ml, EGF 25 ng/ml, TGF-β 2 ng/ml, poly(I).poly(C) 50 ug/ml, TPA 100 ng/ml, A23187 1 uM, forskolin 10 uM, dBcAMP 100 uM, IBMX 100 uM
Protocol: as §1, §2, §3, §4

[1] = test system: TSG-21 (Collagenase) mRNA; experiment: as above; type: cell-based, human; conditions: growth arrested FS-4 cells, 16 h of treatment; TNF 20 ng/ml, CHX 10 ug/ml, IFN-β 500 U/ml, IFN-γ 100 U/ml, IL-1-α 1 ng/ml, EGF 25 ng/ml, TGF-β 2 ng/ml, poly(I).poly(C) 50 ug/ml, TPA 100 ng/ml, forskolin 10 uM, IBMX 100 uM
Protocol: as §1, §2, §3, §4

[2] = test system: TSG-27 (Stromelysin) mRNA; experiment: as above; type: cell-based, human; conditions: growth arrested FS-4 cells, 16 h of treatment; TNF 20 ng/ml, CHX 10 ug/ml, IFN-β 500 U/ml, IFN-γ 100 U/ml, IL-1-α 1 ng/ml, EGF 25 ng/ml, TGF-β 2 ng/ml, poly(I).poly(C) 50 ug/ml, TPA 100 ng/ml, forskolin 10 uM, IBMX 100 uM
Protocol: as §1, §2, §3, §4

[3] = Stability of the TSG-6/IαI complex to denaturants and enzymes; type: physicochemical
Protocol: 100 μL of a TN-5 B insect cell culture supernatant containing TSG-6 protein was incubated with 100 μL of a 1:50 dilution of human serum for 1 hr. at 37° C. Thereafter, one 100-μL aliquot was mixed with 2 mL of 8 M urea and concentrated in a Centricon-10 unit to 100 μL (lane 2); the other aliquot was left untreated (lane 1). The reaction mixtures were then separated by SDS-PAGE and subjected to Western blot analysis with anti-TSG-6 antibody.
Partially purified IαI was incubated in the absence (lane 1) or presence of purified TSG-6 protein (lanes 3-5) at 37° C. for 1 hr. The sample containing both IαI and TSG-6 protein was divided into aliquots and further incubated without enzyme (lane 3), with 800 milliunits of chondroitin sulfate ABC lyase (lane 4), or with 1.6 units of hyaluronidase (lane 5). Lane 2 is a TSG-6 control without IαI. The reaction mixtures were separated by SDS-PAGE and analyzed by Western blotting with anti-TSG-6 antibody.
The Stable Crosslink in the TSG-6/IαI COmplex is Provided by a Gylcosaminoglycan Chain. The stability of the 120 kDa TSG-6/IαI complex during SDS-PAGE under reducing conditions raises the question of the nature of the interaction between TSG-6 and the other components of the complex.
It is known that the three polypeptide chains of IαI are cross-linked by a chondroitin sulfate chain (Enghild et al, J. Biol. Chem. 264:15975-15981 (1989); Jenssen et al, FEBS Lett. 230:195-200 (1988); Balduyck et al, Biol. Chem. Hoppe-Seyler 370:329-336 (1989). It has been shown that bikunin, HC2 of IαLI, and HC3 of pre-α-inhibitor (PαI) are covalently bound to chondroitin 4-sulfate (Enghild et al, J. Biol. Chem. 264:15975-15981 (1989); J. Bio. Chem. 266:747-751 (1991); J. Biol. Chem. 268:8711-8716 (1993). To determine if cross-linking via chondroitin sulfate is also required for the stability of the TSG-6/IαI complex, purified TSG-6 protein and IαI were first incubated together to allow the formation of the complex and then treated with chondroitin sulfate ABC lyase from Proteus vulgaris or hyaluronidase from Streptomyces hyalurolyticus.

| Compound | Relative Increase in mRNA Level TSG-1 (IL-8) (TSG-1 (IL-8) mRNA) | Relative Increase in mRNA Level TSG-12 (TSG-12 mRNA) | Relative Increase in mRNA Level TSG-14 (TSG-14 mRNA) | Relative Increase in mRNA Level TSG-37 (MT-II) (TSG-37 (MT-II) mRNA) | Relative Increase in mRNA Level TSG-6 (TSG-6 mRNA) | Relative Increase in mRNA Level TSG-8 (MCAF) (TSG-8 (MCAF) mRNA) | Relative Increase in mRNA Level TSG-21 (Collagenase) [1] | Relative Increase in mRNA Level TSG-27 (Stromelysin) [2] | stability of the 120-kDa complex to 8 M urea ([3]; 8 M urea added before SDS-PAGE) | stability of the complex to boiling in 2% SDS and 5% β-mercaptoethanol ([3]; SDS-PAGE under reducing conditions) | effect of chondroitin sulfate ABC lyase on the complex ([3]; preformed complex treated with chondroitin sulfate ABC lyase from Proteus vulgaris) | effect of hyaluronidase on the complex ([3]; preformed complex treated with hyaluronidase from Streptomyces hyalurolyticus) | stability of the complex to 8 M guanidine hydrochloride ([3]; treatment with 8 M guanidine hydrochloride, Western blot) |
| --- | --- | --- | --- | --- | --- | --- | --- | --- | --- | --- | --- | --- | --- |
| CNc1ccc2oc(C[C@H]3O[C@@]4(CC[C@H]3C)O[C@H]([C@H](C)C(=O)c3ccc[nH]3)[C@H](C)C[C@H]4C)nc2c1C(=O)O [A23187] | + | ++ | 0 | 0 | + | ++ | – | – | – | – | – | – | – |
| C[C@@H]1C[C@@H]([C@H](O)CC2CC(=O)NC(=O)C2)C(=O)[C@@H](C)C1 [CHX, cycloheximide] | 0 | +++ | + | 0 | 0 | + | 0 | 0 | – | – | – | – | – |
| C=C[C@@]1(C)CC(=O)[C@]2(O)[C@@]3(C)[C@@H](O)CCC(C)(C)[C@@H]3[C@H](O)[C@H](OC(C)=O)[C@@]2(C)O1 [Forskolin, forskolin] | 0 | 0 | 0 | 0 | – | 0 | 0 | 0 | – | – | – | – | – |
| CCCCCCCCCCCCCC(=O)O[C@@H]1[C@@H](C)[C@@]2(O)[C@@H](C=C(CO)C[C@]3(O)C(=O)C(C)=C[C@@H]23)[C@@H]2C(C)(C)[C@]12OC(C)=O [TPA, 12-O-tetradecanoylphorbol 13-acetate] | + | ++ | + | + | + | ++ | ++++ | ++++ | – | – | – | – | – |
| CCCC(=O)Nc1ncnc2c1ncn2[C@@H]1O[C@@H]2COP(=O)(O)O[C@H]2[C@H]1OC(=O)CCC [dBcAMP, N^6-2′-O-dibutyl adenosine cyclic 3′,5′-monophosphate] | 0 | + | 0 | – | 0 | + | – | – | – | – | – | – | – |
| EGF: Epidermal growth factor | 0 | + | + | + | 0 | + | ++ | ++ | – | – | – | – | – |
| IFN-γ: E. coli-derived human gamma interferon | 0 | + | 0 | 0 | 0 | ++ | 0 | 0 | – | – | – | – | – |
| PDGF | 0 | + | + | 0 | 0 | + | 0 | 0 | – | – | – | – | – |
| TGF-β | 0 | 0 | 0 | 0 | 0 | – | 0 | 0 | – | – | – | – | – |
| TSG-6/IαI complex: stable 120 kDa complex containing TSG-6 protein, bikunin and HC2 of IαI | – | – | – | – | – | – | – | – | did not affect | resistance | complete disappearance of the complex | no effect | still detectable |
